The results in this text go back to patent US9975869B2 (Sphaera Pharma Pvt. Ltd., priority 2013, dated 2018).

The test system of this test is AMPK. Kind of test: AMPK activation potential, cell based ELISA (Phospho-AMPKα Thr172) in Hep G2 cells. Particulars: 10 nm concentration; Hep G2 liver cells; % activity with DMSO control as 100%; 30 min incubation for Epicatechin analogs. Here is the method:
Testing of Compounds for Their AMPK Activation Potential
AMPK activation potential of the compounds was evaluated using cell based ELISA. Hepatoma (Hep G2) liver cells were maintained in a T 75 culture flask-containing 25 mM DMEM+10% fetal calf serum. The cells were maintained in a T 75 culture flask-containing medium (DMEM+10% fetal calf serum). On reaching a confluence of 70 to 80%, the cells were seeded in a 96 well plate at a density of 40,000 cells per well in 25 mM DMEM+10% FCS medium. The plates were then incubated at 37° C. with 5% CO2 for 24 hours. Various concentrations of drugs were prepared in DMSO and diluted to required concentration with the medium and incubated at 37° C. with 5% CO2 for 30 min and 1 h for Epicatechin analogs and 11-BHP analogs respectively. Metformin was used as positive control. Cells were fixed with 4% formaldehyde for 30 minutes at room temperature and washed three times with PBS containing 0.1% Triton X-100. Endogenous peroxidase was quenched with 1% H2O2 in PBS-T (0.1% Tween 20) for 30 minutes and washed three times in PBS-T. Cells were blocked with 1% BSA in PBS-T for 1 hour. The cells were incubated with 1:1000 dilution primary antibody (Phospho-AMPKα (Thr172) Rabbit mAb, Cell Signaling in PBS-T containing 5% BSA at 4° C. overnight. The cells were then washed three times with PBS-T for 5 minutes and incubated with 1:1000 dilution secondary antibody (Anti-rabbit IgG, HRP-linked Antibody, Cell Signaling) in PBS-T with 1% BSA for 1 hour at RT. Cells were washed three times with PBS-T for 5 minutes The cells were incubated with 100 μl TMB substrate solution for 30 minutes and the reaction was stopped with 100 μl of 2N H2SO4. Then the plate was read at 450 nm using ELISA plate reader and absorbance recorded. % activity was calculated using DMSO control as 100%. All compounds of the present invention, as exemplified and encompassed are found to be active.
`CCCO[C@@H]1Cc2ccc(O)cc2OC1c1cccc(O)c1` (stereo in doubt) [Compound 1030, 2-(3-hydroxyphenyl)-3-propoxychroman-7-ol]: the “% pAMPK(at 10 nm)” value was 94%.
For `[2H]C1([2H])c2c(O)cc(O)cc2O[C@H](c2ccc(O)c(O)c2)[C@@H]1O` [Compound 1036, (2R,3R)-2-(3,4-dihydroxyphenyl)chromane-4,4-d2-3,5,7-triol] the value was 105%; for `[2H][C@]1(c2ccc(O)c(O)c2)Oc2cc(O)cc(O)c2C[C@H]1O` [Compound 1037, (2R,3R)-2-(3,4-dihydroxyphenyl)chromane-2-d-3,5,7-triol], 110%; for `C[n+]1cccc(C(=O)O[C@@H]2Cc3c(O)cc(O)cc3O[C@@H]2c2ccc(O)c(O)c2)c1` [Compound 1041, 3-((((2R,3R)-2-(3,4-dihydroxyphenyl)-5,7-dihydroxychroman-3-yl)oxy)carbonyl)-1-methylpyridin-1-ium], 88%.
Turning to `CC(C)(C)COC(=O)Oc1cc([C@H]2Oc3cc(O)cc(O)c3C[C@H]2O)ccc1O` [Compound 1042, 2-hydroxy-5-((2R,3R)-3,5,7-trihydroxychroman-2-yl)phenyl neopentyl carbonate], the “% pAMPK(at 10 nm)” value came to 95%.
For the compound `CCCCCCCC(=O)Oc1ccc([C@H]2Oc3cc(O)cc(O)c3C[C@H]2O)cc1O` [Compound 1043, 2-hydroxy-4-((2R,3R)-3,5,7-trihydroxychroman-2-yl)phenyl octanoate], the “% pAMPK(at 10 nm)” value turned out to be 98%.
On to `CC(C)NC(=O)Oc1ccc([C@H]2Oc3cc(O)cc(O)c3C[C@H]2O)cc1OC(=O)NC(C)C` [Compound 1044, 4-((2R,3R)-3,5,7-trihydroxychroman-2-yl)-1,2-phenylene bis(isopropylcarbamate)], for which the “% pAMPK(at 10 nm)” value came out at 96%.
On to `CC(C)(C)COC(=O)O[C@@H]1Cc2c(O)cc(O)cc2O[C@@H]1c1ccc(O)c(O)c1` [Compound 1045, (2R,3R)-2-(3,4-dihydroxyphenyl)-5,7-dihydroxychroman-3-yl neopentyl carbonate], for which the “% pAMPK(at 10 nm)” value came to 105%.
In the case of `CC(C)NC(=O)O[C@@H]1Cc2c(O)cc(O)cc2O[C@@H]1c1ccc(O)c(O)c1` [Compound 1046, (2R,3R)-2-(3,4-dihydroxyphenyl)-5,7-dihydroxychroman-3-yl isopropylcarbamate], the “% pAMPK(at 10 nm)” value was 101%.
`CN(C)C(=O)O[C@@H]1Cc2c(O)cc(O)cc2O[C@@H]1c1ccc(O)c(O)c1` [Compound 1047, (2R,3R)-2-(3,4-dihydroxyphenyl)-5,7-dihydroxychroman-3-yl dimethylcarbamate]: the “% pAMPK(at 10 nm)” value was 100%.
For `O=C(OCc1ccccc1)Oc1ccc([C@H]2Oc3cc(O)cc(O)c3C[C@H]2O)cc1OC(=O)OCc1ccccc1` [Compound 1048, dibenzyl (4-((2R,3R)-3,5,7-trihydroxychroman-2-yl)-1,2-phenylene) bis(carbonate)] the value was 103%; for `COC(=O)Oc1ccc([C@H]2Oc3cc(O)cc(O)c3C[C@H]2O)cc1OC(=O)OC` [Compound 1049, dimethyl (4-((2R,3R)-3,5,7-trihydroxychroman-2-yl)-1,2-phenylene) bis(carbonate)], 105%.
For `CC(C)COC(=O)Oc1cc(OC(=O)OCC(C)C)c2c(c1)O[C@H](c1ccc(O)c(O)c1)[C@H](O)C2` [Compound 1050, (2R,3R)-2-(3,4-dihydroxyphenyl)-3-hydroxychromane-5,7-diyl diisobutyl bis(carbonate)], the “% pAMPK(at 10 nm)” value is recorded as 91%.
To `O=C(NCc1ccccc1)Oc1cc(OC(=O)NCc2ccccc2)c2c(c1)O[C@H](c1ccc(OC(=O)NCc3ccccc3)c(OC(=O)NCc3ccccc3)c1)[C@H](O)C2` [Compound 1051, 4-((2R,3R)-5,7-bis((benzylcarbamoyl)oxy)-3-hydroxychroman-2-yl)-1,2-phenylene bis(benzylcarbamate)] belongs 85%; to `O=C(OCc1ccccc1)Oc1cc(OC(=O)OCc2ccccc2)c2c(c1)O[C@H](c1ccc(OC(=O)OCc3ccccc3)c(OC(=O)OCc3ccccc3)c1)[C@H](O)C2` [Compound 1052, dibenzyl (4-((2R,3R)-5,7-bis(((benzyloxy)carbonyl)oxy)-3-hydroxychroman-2-yl)-1,2-phenylene) bis(carbonate)], 103%.
For the compound `CCOC(=O)O[C@@H]1Cc2c(O)cc(O)cc2O[C@@H]1c1ccc(O)c(O)c1` [Compound 1053, (2R,3R)-2-(3,4-dihydroxyphenyl)-5,7-dihydroxychroman-3-yl ethyl carbonate], the “% pAMPK(at 10 nm)” value was 94%.
For `CC(C)OC(=O)O[C@@H]1Cc2c(O)cc(O)cc2O[C@@H]1c1ccc(O)c(O)c1` [Compound 1055, (2R,3R)-2-(3,4-dihydroxyphenyl)-5,7-dihydroxychroman-3-yl isopropyl carbonate] the value was 105%; for `COC(=O)CNC(=O)O[C@@H]1Cc2c(O)cc(O)cc2O[C@@H]1c1ccc(O)c(O)c1` [Compound 1056, methyl ((((2R,3R)-2-(3,4-dihydroxyphenyl)-5,7-dihydroxychroman-3-yl)oxy)carbonyl)glycinate], 112%; for `COC(=O)Oc1cc(OC(=O)OC)c2c(c1)O[C@H](c1ccc(O)c(O)c1)[C@H](O)C2` [Compound 1058, (2R,3R)-2-(3,4-dihydroxyphenyl)-3-hydroxychromane-5,7-diyl dimethyl bis(carbonate)], 117%.
For `O=C(NCc1ccccc1)Oc1ccc([C@H]2Oc3cc(O)cc(O)c3C[C@H]2O)cc1OC(=O)NCc1ccccc1` [Compound 1059, 4-((2R,3R)-3,5,7-trihydroxychroman-2-yl)-1,2-phenylene bis(benzylcarbamate)] the value was 144%.
`CC(C)COC(=O)Oc1cc(OC(=O)OCC(C)C)c2c(c1)O[C@H](c1ccc(OC(=O)OCc3ccccc3)c(OC(=O)OCc3ccccc3)c1)[C@H](O)C2` [Compound 1060, dibenzyl (4-((2R,3R)-3-hydroxy-5,7-bis((isobutoxycarbonyl)oxy)chroman-2-yl)-1,2-phenylene) bis(carbonate)]: the “% pAMPK(at 10 nm)” value worked out at 110%.
Regarding `CCCCCCCC(=O)Oc1cc(O)cc2c1C[C@@H](O)[C@@H](c1ccc(O)c(O)c1)O2` [Compound 1064, (2R,3R)-2-(3,4-dihydroxyphenyl)-3,7-dihydroxychroman-5-yl octanoate], the “% pAMPK(at 10 nm)” value is 110%.
To `COC(=O)Oc1cc(OC(=O)OC)c2c(c1)O[C@H](c1ccc(OC(=O)OCc3ccccc3)c(OC(=O)OCc3ccccc3)c1)[C@H](O)C2` [Compound 1066, dibenzyl (4-((2R,3R)-3-hydroxy-5,7-bis((methoxycarbonyl)oxy)chroman-2-yl)-1,2-phenylene) bis(carbonate)] belongs 139%; to `CCCO[C@@H]1Cc2ccc(O)cc2O[C@@H]1c1cccc(OC)c1` [Compound 1068, (2R,3R)-2-(3-methoxyphenyl)-3-propoxychroman-7-ol], 90%.
Consider `Cc1ccc([C@H]2Oc3cc(O)ccc3C[C@H]2O)cc1O` [Compound 1069, (2R,3R)-2-(3-hydroxy-4-methylphenyl)chromane-3,7-diol], for which the “% pAMPK(at 10 nm)” value is on record as 110%.
In the case of `COc1ccc([C@H]2Oc3cc(OC)ccc3C[C@H]2O)cc1` [Compound 1070, (2R,3R)-7-methoxy-2-(4-methoxyphenyl)chroman-3-ol], the “% pAMPK(at 10 nm)” value turned out to be 126%.
As to `O=C(O[C@@H]1Cc2c(O)cc(O)cc2O[C@@H]1c1ccc(O)c(O)c1)c1cccnc1` [Compound 1071, (2R,3R)-2-(3,4-dihydroxyphenyl)-5,7-dihydroxychroman-3-yl nicotinate], the “% pAMPK(at 10 nm)” value was found to be 102%.
As to `CC(C)(C)COC(=O)Oc1ccc([C@H]2Oc3cc(O)cc(O)c3C[C@H]2O)cc1OC(=O)OCC(C)(C)C` [Compound 1072, dineopentyl (4-((2R,3R)-3,5,7-trihydroxychroman-2-yl)-1,2-phenylene) bis(carbonate)], the “% pAMPK(at 10 nm)” value was 99%.
Regarding `CC(C)(C)OC(=O)O[C@@H]1Cc2c(O)cc(O)cc2O[C@@H]1c1ccc(O)c(O)c1` [Compound 1073, tert-butyl ((2R,3R)-2-(3,4-dihydroxyphenyl)-5,7-dihydroxychroman-3-yl) carbonate], the “% pAMPK(at 10 nm)” value is recorded as 109%.
